Source: patent US20050004092A1, “Penem derivatives and antimicrobial agent containing the same” (DAIICHI SUNTORY PHARMA CO., LTD., priority 1995, published 2005)
Converted amounts (≈) assume the structure as drawn. Where two headings read alike, the source gives them in different places.

Experiments:
Assay in all cases: antibacterial activity (MIC), standard in vitro dilution test
[1] = tested on: MRSA 33 high-resist. (IPM resist.); type: cell-based, Staphylococcus aureus; settings: for MIC: Staphylococcus aureus, MRSA, read-out: MIC, MRSA 33 high-resist. (IPM resist.)
Excerpt: (§1) With respect to certain compounds (I) of the present invention, their general antibacterial activities and their antibacterial activities (MIC) against various methicillin-resistant strains of Staphylococcus aureus (methicillin-resistant Staphylococcus aureus: MRSA) were investigated. The results will be shown next.
(§2) Of the investigations, the general antibacterial activities were investigated by a standard in vitro dilution test.
(§3) As test bacteria, Staphylococcus aureus 209P JC-1, Escherichia coli NIHJ JC-2 and MRSAs were used.

[2] = tested on: MRSA 31 high-resist. (IPM resist.); type: cell-based, Staphylococcus aureus; settings: for MIC: Staphylococcus aureus, MRSA, read-out: MIC, MRSA 31 high-resist. (IPM resist.)
Excerpt: as §1, §2, §3

[3] = tested on: Staphylococcus aureus 209P JC-1 strain; type: cell-based; settings: for MIC: Staphylococcus aureus, 209P, read-out: MIC, Staphylococcus aureus 209P JC-1 strain
Excerpt: as §1, §2, §3

[4] = tested on: Escherichia coli NIHJ JC-2 strain; type: cell-based; settings: for MIC: Escherichia coli; for MIC, Escherichia coli NIHJ JC-2 strain: test bacterium strain 10^5 cfu/ml
Excerpt: as §1, §2, §3

[5] = test bacterium strain 10^5 cfu/ml
[6] = NIHJJC2, test bacterium strain 10^5 cfu/ml, read-out: MIC, Escherichia coli NIHJ JC-2 strain

Compound | MIC [1, 5] | MIC [2, 5] | MIC [3, 5] | MIC [4, 6] | other results
CC[C@H](O)[C@@H]1C(=O)N2C(C(=O)O)=C(S[C@H]3CCN(CC(=O)c4ccc(F)cc4)C3)S[C@H]12 [Ex. 112, (5R,6R)-2-((S)-1-(2-p-fluorophenyl-2-oxoethyl)pyrrolidin-3-yl)thio-6-((S)-1-hydroxypropyl)penem-3-carboxylic acid] | 6.25 µg/mL (≈ 13.4 µM) | 6.25 µg/mL (≈ 13.4 µM) | 0.1 µg/mL (≈ 0.214 µM) | 0.78 µg/mL (≈ 1.67 µM) | –
CC[C@H](O)[C@@H]1C(=O)N2C(C(=O)O)=C(SCc3nc4ccccc4[nH]3)SC12 (stereo partly drawn) [Ex. 205] | 3.13 µg/mL (≈ 8 µM) | 3.13 µg/mL (≈ 8 µM) | 0.1 µg/mL (≈ 0.255 µM) | 3.13 µg/mL (≈ 8 µM) | –
CC[C@H](O)[C@@H]1C(=O)N2C(C(=O)O)=C(S[C@H]3CCN(C(C)C(=O)c4ccccc4)C3)S[C@H]12 (stereo partly drawn) [Ex. 117] | – | – | – | – | MIC [1]: 6.25 µg/mL (≈ 13.5 µM); MIC [2]: 6.25 µg/mL (≈ 13.5 µM); MIC [3]: 0.1 µg/mL (≈ 0.216 µM); MIC ([4]; NIHJJC2, read-out: MIC, Escherichia coli NIHJ JC-2 strain): 1.56 µg/mL (≈ 3.37 µM)
CC[C@H](O)[C@@H]1C(=O)N2C(C(=O)O)=C(S[C@H]3CCN(CC(=O)c4ccc5c(c4)OCO5)C3)S[C@H]12 [Ex. 207] | 6.25 µg/mL (≈ 12.7 µM) | 6.25 µg/mL (≈ 12.7 µM) | 0.1 µg/mL (≈ 0.203 µM) | 0.39 µg/mL (≈ 0.792 µM) | –
CC[C@H](O)[C@@H]1C(=O)N2C(C(=O)O)=C(SC3CCN(C(=N)NC(=O)c4ccccc4)C3)S[C@H]12 (stereo partly drawn) [Ex. 218] | 6.25 µg/mL (≈ 13.1 µM) | 6.25 µg/mL (≈ 13.1 µM) | 0.2 µg/mL (≈ 0.42 µM) | 25 µg/mL (≈ 52.5 µM) | –
CC[C@H](O)[C@@H]1C(=O)N2C(C(=O)O)=C(SC3Cc4ccccc4C3)S[C@H]12 [Ex. 225] | 1.56 µg/mL (≈ 4.13 µM) | 1.56 µg/mL (≈ 4.13 µM) | 0.05 µg/mL (≈ 0.132 µM) | 12.5 µg/mL (≈ 33.1 µM) | –
CC[C@H](O)[C@@H]1C(=O)N2C(C(=O)O)=C(S[C@H]3CCN(CC4CC4)C3)S[C@H]12 [Ex. 230] | 6.25 µg/mL (≈ 16.3 µM) | 6.25 µg/mL (≈ 16.3 µM) | 0.2 µg/mL (≈ 0.52 µM) | 0.78 µg/mL (≈ 2.03 µM) | –
CC[C@H](O)[C@@H]1C(=O)N2C(C(=O)O)=C(S[C@H]3CCN(C(=N)CF)C3)S[C@H]12 [Ex. 253] | 6.25 µg/mL (≈ 16 µM) | 6.25 µg/mL (≈ 16 µM) | 0.1 µg/mL (≈ 0.257 µM) | 0.78 µg/mL (≈ 2 µM) | –
CC[C@H](O)[C@@H]1C(=O)N2C(C(=O)O)=C(S[C@H]3CCN(CCCC(=O)c4ccccc4)C3)S[C@H]12 [Ex. 215] | 6.25 µg/mL (≈ 13.1 µM) | 6.25 µg/mL (≈ 13.1 µM) | 0.1 µg/mL (≈ 0.21 µM) | 3.13 µg/mL (≈ 6.57 µM) | –
CC[C@H](O)[C@@H]1C(=O)N2C(C(=O)O)=C(S[C@H]3CCN(c4ncccn4)C3)S[C@H]12 [Ex. 209] | 6.25 µg/mL (≈ 15.3 µM) | 6.25 µg/mL (≈ 15.3 µM) | 0.39 µg/mL (≈ 0.955 µM) | 25 µg/mL (≈ 61.2 µM) | –
CC[C@H](O)[C@@H]1C(=O)N2C(C(=O)O)=C(SCc3ccccn3)S[C@H]12 [Ex. 129, (5R,6R)-6-((S)-1-hydroxypropyl)-2-(2-pyridylmethyl)thiopenem-3-carboxylic acid] | 6.25 µg/mL (≈ 17.7 µM) | 6.25 µg/mL (≈ 17.7 µM) | 0.2 µg/mL (≈ 0.567 µM) | 6.25 µg/mL (≈ 17.7 µM) | –
CCC(=N)N1CC[C@H](SC2=C(C(=O)O)N3C(=O)[C@@H]([C@@H](O)CC)[C@H]3S2)C1 [Ex. 250] | 6.25 µg/mL (≈ 16.2 µM) | 6.25 µg/mL (≈ 16.2 µM) | 0.2 µg/mL (≈ 0.519 µM) | 1.56 µg/mL (≈ 4.05 µM) | –
CC[C@H](O)[C@@H]1C(=O)N2C(C(=O)O)=C(SCCC(=O)Nc3ccccc3)S[C@H]12 [Ex. 134, (5R,6R)-6-((S)-1-hydroxypropyl)-2-(2-phenylaminocarbonylethyl)thiopenem-3-carboxylic acid] | 6.25 µg/mL (≈ 15.3 µM) | 6.25 µg/mL (≈ 15.3 µM) | 0.39 µg/mL (≈ 0.955 µM) | 12.5 µg/mL (≈ 30.6 µM) | –
CC[C@H](O)[C@@H]1C(=O)N2C(C(=O)O)=C(SCCN3CCCC3)S[C@H]12 [Ex. 143, (5R,6R)-6-((S)-1-hydroxypropyl)-2-(2-(pyrrolidin-1-yl)ethyl)thiopenem-3-carboxylic acid] | 6.25 µg/mL (≈ 17.4 µM) | 6.25 µg/mL (≈ 17.4 µM) | 0.39 µg/mL (≈ 1.09 µM) | 3.13 µg/mL (≈ 8.73 µM) | –
CC[C@H](O)[C@@H]1C(=O)N2C(C(=O)O)=C(SCCN)S[C@H]12 [Ex. 140, (5R,6R)-2-(2-aminoethyl)thio-6-((S)-1-hydroxypropyl)penem-3-carboxylic acid] | 6.25 µg/mL (≈ 20.5 µM) | 6.25 µg/mL (≈ 20.5 µM) | 0.1 µg/mL (≈ 0.329 µM) | 0.73 µg/mL (≈ 2.4 µM) | –
CC[C@H](O)[C@@H]1C(=O)N2C(C(=O)O)=C(SC3CN(C(C)=N)C3)S[C@H]12 [Ex. 255] | 3.13 µg/mL (≈ 8.76 µM) | 3.13 µg/mL (≈ 8.76 µM) | 0.1 µg/mL (≈ 0.28 µM) | 0.78 µg/mL (≈ 2.18 µM) | –
CC[C@H](O)[C@@H]1C(=O)N2C(C(=O)O)=C(SCCN(C)CC(=O)c3ccccc3)S[C@H]12 [Ex. 142, (5R,6R)-6-((S)-1-hydroxypropyl)-2-(2-(N-methyl-N-phenacylamino)ethyl)thiopenem-3-carboxylic acid] | 6.25 µg/mL (≈ 14.3 µM) | 6.25 µg/mL (≈ 14.3 µM) | 0.1 µg/mL (≈ 0.229 µM) | 0.78 µg/mL (≈ 1.79 µM) | –
C=CCN1CCC(SC2=C(C(=O)O)N3C(=O)[C@@H]([C@@H](O)CC)[C@H]3S2)C1 (stereo partly drawn) [Ex. 18, (5R,6R)-2-(1-allyl-3-pyrrolidine)-thio-6-((S)-1-hydroxypropyl)penem-3-carboxylic acid] | – | – | – | – | MIC, MRSA 33 high-resist. (IPM resist.) [1, 5]: 3.13 µg/mL (≈ 8.45 µM); MIC, MRSA 31 high-resist. (IPM resist.) [2, 5]: 3.13 µg/mL (≈ 8.45 µM); MIC, Staphylococcus aureus 209P JC-1 strain [3, 5]: ≦0.025 μg/ml; MIC, Escherichia coli NIHJ JC-2 strain [4]: 0.39 µg/mL (≈ 1.05 µM)
CC[C@H](O)[C@@H]1C(=O)N2C(C(=O)O)=C(S[C@H]3CCN(CC(=O)c4ccccc4)C3)S[C@H]12 [Ex. 111, (5R,6R)-6-((S)-1-hydroxypropyl)-2-((S)-1-phenacylpyrrolidin-3-yl)thiopenem-3-carboxylic acid] | 3.13 µg/mL (≈ 6.98 µM) | 3.13 µg/mL (≈ 6.98 µM) | 0.1 µg/mL (≈ 0.223 µM) | 0.2 µg/mL (≈ 0.446 µM) | –
CC[C@H](O)[C@@H]1C(=O)N2C(C(=O)O)=C(S[C@H]3CCN(CCC(=O)c4ccccc4)C3)S[C@H]12 [Ex. 116, (5R,6R)-2-((S)-1-(2-benzoylethyl)-pyrrolidin-3-yl)thio-6-((S).-1-hydroxypropyl)-penem-3-carboxylic acid] | 3.13 µg/mL (≈ 6.77 µM) | 3.13 µg/mL (≈ 6.77 µM) | 0.05 µg/mL (≈ 0.108 µM) | 0.2 µg/mL (≈ 0.432 µM) | –
CC[C@H](O)[C@@H]1C(=O)N2C(C(=O)O)=C(S[C@H]3CCN(c4nccs4)C3)S[C@H]12 [Ex. 229] | 3.13 µg/mL (≈ 7.57 µM) | 3.13 µg/mL (≈ 7.57 µM) | 0.1 µg/mL (≈ 0.242 µM) | 12.5 µg/mL (≈ 30.2 µM) | –
CC[C@H](O)[C@@H]1C(=O)N2C(C(=O)O)=C(SC3CN(C=N)C3)S[C@H]12 [Ex. 254] | 6.25 µg/mL (≈ 18.2 µM) | 6.25 µg/mL (≈ 18.2 µM) | 0.1 µg/mL (≈ 0.291 µM) | 0.78 µg/mL (≈ 2.27 µM) | –
CC[C@H](O)[C@@H]1C(=O)N2C(C(=O)O)=C(SC3CCc4cccnc43)S[C@H]12 (stereo partly drawn) [Ex. 232] | – | – | – | – | MIC, MRSA 33 high-resist. (IPM resist.) [1, 5]: 3.13 µg/mL (≈ 8.27 µM); MIC, MRSA 31 high-resist. (IPM resist.) [2, 5]: 3.13 µg/mL (≈ 8.27 µM); MIC, Staphylococcus aureus 209P JC-1 strain [3, 5]: 0.05 µg/mL (≈ 0.132 µM); MIC, Escherichia coli NIHJ JC-2 strain [4]: 12.5 µg/mL (≈ 33 µM)
CC[C@H](O)[C@@H]1C(=O)N2C(C(=O)O)=C(SC3CCN(CC(=O)c4ccccc4C)C3)S[C@H]12 (stereo partly drawn) [Ex. 226] | 6.25 µg/mL (≈ 13.5 µM) | 6.25 µg/mL (≈ 13.5 µM) | 0.2 µg/mL (≈ 0.432 µM) | 0.39 µg/mL (≈ 0.843 µM) | –
CC[C@H](O)[C@@H]1C(=O)N2C(C(=O)O)=C(SCc3ccc(C#N)cc3)S[C@H]12 [Ex. 239] | 1.56 µg/mL (≈ 4.14 µM) | 0.78 µg/mL (≈ 2.07 µM) | 0.1 µg/mL (≈ 0.266 µM) | 12.5 µg/mL (≈ 33.2 µM) | –
CC[C@H](O)[C@@H]1C(=O)N2C(C(=O)O)=C(SCCNC(C)=N)S[C@H]12 [Ex. 131, (5R,6R)-2-(2-(1-iminoethylamino)-ethyl)thio-6-((S)-1-hydroxypropyl)penem-3-carboxylic acid] | 6.25 µg/mL (≈ 18.1 µM) | 6.25 µg/mL (≈ 18.1 µM) | 0.1 µg/mL (≈ 0.289 µM) | 0.78 µg/mL (≈ 2.26 µM) | –
CC[C@H](O)[C@@H]1C(=O)N2C(C(=O)O)=C(S[C@H]3CCN(C(=N)Nc4ccccc4)C3)S[C@H]12 [Ex. 243] | 6.25 µg/mL (≈ 13.9 µM) | 6.25 µg/mL (≈ 13.9 µM) | 0.2 µg/mL (≈ 0.446 µM) | 1.56 µg/mL (≈ 3.48 µM) | –
